According to PubChem BioAssay (NCI):
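Each compound was tested at five concentrations against cells in 96-well plates for 48 hours. GI50 marks 50% less growth. TGI: total growth inhibition.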

Assays:
Assay in all cases: growth of human tumour cells (NCI), 48 h
HCT-15 colon = tested on: HCT-15 colon
RXF 393 renal = tested on: RXF 393 renal
UACC-62 melanoma = tested on: UACC-62 melanoma
HCT-116 colon = tested on: HCT-116 colon
786-0 renal = tested on: 786-0 renal
SR leukemia = tested on: SR leukemia
LOX IMVI melanoma = tested on: LOX IMVI melanoma
A549 NSCLC = tested on: A549 NSCLC
OVCAR-5 ovarian = tested on: OVCAR-5 ovarian
IGROV1 ovarian = tested on: IGROV1 ovarian
NCI-H522 lung = tested on: NCI-H522 lung
SW-620 colon = tested on: SW-620 colon
SK-MEL-2 melanoma = tested on: SK-MEL-2 melanoma
NCI-H226 lung = tested on: NCI-H226 lung
K-562 leukemia = tested on: K-562 leukemia
OVCAR-3 ovarian = tested on: OVCAR-3 ovarian
ACHN renal = tested on: ACHN renal
MDA-MB-435 = tested on: MDA-MB-435
COLO 205 colon = tested on: COLO 205 colon
KM12 colon = tested on: KM12 colon
PC-3 prostate = tested on: PC-3 prostate
MDA-MB-231 breast = tested on: MDA-MB-231 breast
MCF7 breast = tested on: MCF7 breast
SF-539 CNS = tested on: SF-539 CNS
M14 melanoma = tested on: M14 melanoma
CCRF-CEM leukemia = tested on: CCRF-CEM leukemia
HT29 colon = tested on: HT29 colon
BT-549 breast = tested on: BT-549 breast
SNB-75 CNS = tested on: SNB-75 CNS
TK-10 renal = tested on: TK-10 renal
HCC-2998 colon = tested on: HCC-2998 colon
MALME-3M melanoma = tested on: MALME-3M melanoma
HL-60(TB) leukemia = tested on: HL-60(TB) leukemia
CAKI-1 renal = tested on: CAKI-1 renal
EKVX NSCLC = tested on: EKVX NSCLC
UACC-257 melanoma = tested on: UACC-257 melanoma
NCI/ADR-RES ovarian = tested on: NCI/ADR-RES ovarian
SF-268 CNS = tested on: SF-268 CNS
SNB-19 CNS = tested on: SNB-19 CNS
MOLT-4 leukemia = tested on: MOLT-4 leukemia
NCI-H460 lung = tested on: NCI-H460 lung
HS 578T breast = tested on: HS 578T breast
SF-295 CNS = tested on: SF-295 CNS
HOP-92 NSCLC = tested on: HOP-92 NSCLC
SK-OV-3 ovarian = tested on: SK-OV-3 ovarian
OVCAR-8 ovarian = tested on: OVCAR-8 ovarian
SN12C renal = tested on: SN12C renal
SK-MEL-5 melanoma = tested on: SK-MEL-5 melanoma
UO-31 renal = tested on: UO-31 renal
A498 renal = tested on: A498 renal
NCI-H23 lung = tested on: NCI-H23 lung
SK-MEL-28 melanoma = tested on: SK-MEL-28 melanoma
U251 CNS = tested on: U251 CNS
HOP-62 NSCLC = tested on: HOP-62 NSCLC
T-47D breast = tested on: T-47D breast
DU-145 prostate = tested on: DU-145 prostate
OVCAR-4 ovarian = tested on: OVCAR-4 ovarian

CC1(C)CC[C@]2(C(N)=O)CC[C@]3(C)C(=CC[C@@H]4[C@@]5(C)C/C(=C/c6cccnc6)C(=O)C(C)(C)[C@@H]5CC[C@]43C)[C@@H]2C1
GI50 (HCT-15 colon): 2.09 µM
TGI (HCT-15 colon): 4.31 µM
GI50 (RXF 393 renal): 1.67 µM
TGI (RXF 393 renal): 3.3 µM
GI50 (UACC-62 melanoma): 2.21 µM
TGI (UACC-62 melanoma): 5.13 µM
GI50 (HCT-116 colon): 1.8 µM
TGI (HCT-116 colon): 3.68 µM
GI50 (786-0 renal): 3.85 µM
TGI (786-0 renal): 30.5 µM
GI50 (SR leukemia): 2.34 µM
TGI (SR leukemia): 7.14 µM
GI50 (LOX IMVI melanoma): 1.71 µM
TGI (LOX IMVI melanoma): 3.24 µM
GI50 (A549 NSCLC): 3.31 µM
TGI (A549 NSCLC): > 100 µM
GI50 (OVCAR-5 ovarian): 1.93 µM
TGI (OVCAR-5 ovarian): 4.16 µM
GI50 (IGROV1 ovarian): 3.62 µM
TGI (IGROV1 ovarian): 73 µM
GI50 (NCI-H522 lung): 2.43 µM
TGI (NCI-H522 lung): 8.11 µM
GI50 (SW-620 colon): 3 µM
TGI (SW-620 colon): > 100 µM
GI50 (SK-MEL-2 melanoma): 2.22 µM
TGI (SK-MEL-2 melanoma): 4.99 µM
GI50 (NCI-H226 lung): 2.09 µM
TGI (NCI-H226 lung): 5.78 µM
GI50 (K-562 leukemia): 2.4 µM
TGI (K-562 leukemia): 7.11 µM
GI50 (OVCAR-3 ovarian): 1.86 µM
TGI (OVCAR-3 ovarian): 3.53 µM
GI50 (ACHN renal): 3.49 µM
TGI (ACHN renal): 13.6 µM
GI50 (MDA-MB-435): 3.15 µM
TGI (MDA-MB-435): 11.2 µM
GI50 (COLO 205 colon): 1.86 µM
TGI (COLO 205 colon): 3.76 µM
GI50 (KM12 colon): 2.28 µM
TGI (KM12 colon): 5.72 µM
GI50 (PC-3 prostate): 2.56 µM
TGI (PC-3 prostate): 13.4 µM
GI50 (MDA-MB-231 breast): 3.8 µM
TGI (MDA-MB-231 breast): 22.3 µM
GI50 (MCF7 breast): 2.71 µM
TGI (MCF7 breast): 13.7 µM
GI50 (SF-539 CNS): 1.97 µM
TGI (SF-539 CNS): 3.9 µM
GI50 (M14 melanoma): 3.38 µM
TGI (M14 melanoma): 10.9 µM
GI50 (CCRF-CEM leukemia): 2.54 µM
TGI (CCRF-CEM leukemia): 7.73 µM
GI50 (HT29 colon): 2.1 µM
TGI (HT29 colon): 4.56 µM
GI50 (BT-549 breast): 2.61 µM
TGI (BT-549 breast): 6.83 µM
GI50 (SNB-75 CNS): 9.92 µM
TGI (SNB-75 CNS): > 100 µM
GI50 (TK-10 renal): 4.05 µM
TGI (TK-10 renal): 30.2 µM
GI50 (HCC-2998 colon): 1.71 µM
TGI (HCC-2998 colon): 3.34 µM
GI50 (MALME-3M melanoma): 1.9 µM
TGI (MALME-3M melanoma): 4.05 µM
GI50 (HL-60(TB) leukemia): 2.04 µM
TGI (HL-60(TB) leukemia): 4.55 µM
GI50 (CAKI-1 renal): 2.92 µM
TGI (CAKI-1 renal): 13 µM
GI50 (EKVX NSCLC): 3.44 µM
TGI (EKVX NSCLC): > 100 µM
GI50 (UACC-257 melanoma): 3.2 µM
TGI (UACC-257 melanoma): 12.1 µM
GI50 (NCI/ADR-RES ovarian): 2.71 µM
TGI (NCI/ADR-RES ovarian): 8.96 µM
GI50 (SF-268 CNS): 3.8 µM
TGI (SF-268 CNS): 18 µM
GI50 (SNB-19 CNS): 4.03 µM
TGI (SNB-19 CNS): 16.5 µM
GI50 (MOLT-4 leukemia): 2.01 µM
TGI (MOLT-4 leukemia): 6.3 µM
GI50 (NCI-H460 lung): 2.2 µM
TGI (NCI-H460 lung): 5.33 µM
GI50 (HS 578T breast): 5.93 µM
TGI (HS 578T breast): > 100 µM
GI50 (SF-295 CNS): 3.16 µM
TGI (SF-295 CNS): 11.2 µM
GI50 (HOP-92 NSCLC): 2.66 µM
TGI (HOP-92 NSCLC): 8.7 µM
GI50 (SK-OV-3 ovarian): 3.95 µM
TGI (SK-OV-3 ovarian): > 100 µM
GI50 (OVCAR-8 ovarian): 3.69 µM
TGI (OVCAR-8 ovarian): > 100 µM
GI50 (SN12C renal): 2.31 µM
TGI (SN12C renal): 5.24 µM
GI50 (SK-MEL-5 melanoma): 1.81 µM
TGI (SK-MEL-5 melanoma): 3.33 µM
GI50 (UO-31 renal): 2.28 µM
TGI (UO-31 renal): 6.83 µM
GI50 (A498 renal): 2.06 µM
TGI (A498 renal): 4.06 µM
GI50 (NCI-H23 lung): 3.31 µM
TGI (NCI-H23 lung): > 100 µM
GI50 (SK-MEL-28 melanoma): 2.26 µM
TGI (SK-MEL-28 melanoma): 4.71 µM
GI50 (U251 CNS): 3.19 µM
TGI (U251 CNS): 11.2 µM
GI50 (HOP-62 NSCLC): 2.84 µM
TGI (HOP-62 NSCLC): 10.1 µM
GI50 (T-47D breast): 2.66 µM
TGI (T-47D breast): 11.4 µM
GI50 (DU-145 prostate): 3.52 µM
TGI (DU-145 prostate): 16.5 µM
GI50 (OVCAR-4 ovarian): 7.1 µM
TGI (OVCAR-4 ovarian): > 100 µM
